Laboratory results as given in PubChem BioAssay (NCI).
Several values for one entry are separate records, joined by “and”; a condition that tells them apart may be missing. Equal values may be shown once.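 Briefly, cells in 96-well plates were exposed to five compound concentrations for 48 h, and endpoints were estimated by linear interpolation. Here, GI50 denotes the concentration required for 50% inhibition of growth. TGI is the concentration that stops growth completely.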

Tested on: MDA-MB-468 breast
Assay: NCI anticancer screen, dose series, 48 h

Structure (SMILES) | GI50 | TGI [µM]
Oc1ccc(-c2nc3ccc4[nH]ncc4c3c3c2CCCC3)c2cccnc12 | 0.787 µM | 2.02
CC(=O)OC1=C2C(CC3C4CC=C5CC(OC(C)=O)CCC5(C)C4CCC23C)C2C(=O)N(Cc3ccccc3)C(=O)C2C1 (stereo not given) | 2.84 µM | 14.9
Cc1ccccc1NC(=O)c1sc2nc3c(cc2c1N)C(=O)CCC3 | 0.529 µM | 6.21
CN(C)CCCC(=O)Nc1ccc(Cn2nnc3c2C(=O)c2nnn(Cc4ccc(NC(=O)CCCN(C)C)cc4)c2C3=O)cc1 | 1.3 µM | 2.97
Clc1ccc(-c2cn(-c3ccccc3)c(-c3ccccc3)n2)c(Cl)c1 | > 50 µM | > 50
COc1ccc(-c2[nH]ncc2-c2cc(OC)c(OC)c(OC)c2)cc1 | < 0.01 µM | 5.56
CN1c2ccccc2C(C)(C)C12CC(c1ccc(Cl)c(S(=O)(=O)N3CCCC3)c1)=NO2 (stereo not given) | > 100 µM | > 100
C#CC#CC#CC#CC#CC#CC#CC#CCC1OC[C@H](COC(=O)O[C@@H](C(=O)O[C@H]2C[C@@]3(O)[C@@H](OC(=O)c4ccccc4)[C@@H]4[C@]5(OC(C)=O)CO[C@@H]5C[C@H](O)[C@@]4(C)C(=O)[C@H](OC(C)=O)C(=C2C)C3(C)C)[C@@H](NC(=O)c2ccccc2)c2ccccc2)O1 (stereo not given in full) | 0.139 µM | 0.922
COc1cc(/C=C/C(=O)c2cc(OC)c(OC)c(OC)c2)cc(OC)c1OC | 3.07 µM | 14.8
NC(N)=Nc1ccc(Oc2ccc(Nc3ccc(Cl)c(C(F)(F)F)c3)cc2)cc1 | 1.55 µM | 3.39
COc1ccc(Cn2cc(Cn3c(=O)c(-c4nc5ccccc5[nH]4)cc4ccccc43)nn2)c(OC)c1OC | 0.112 µM and 0.254 µM | –
Nc1c(O)c(S(=O)(=O)O)c(O)c2c1C(=O)c1ccccc1C2=O | 2.1 µM | 5.98
CC(C)[C@@H](CS(=O)(=O)C(C)C)N1C(=O)[C@@](C)(CC(=O)O)C[C@H](c2cccc(Cl)c2)[C@H]1c1ccc(Cl)cc1 | 11.6 µM | 45
CC1(C)CC[C@]2(C(=O)O)CC[C@]3(C)[C@H](CC[C@@H]4[C@@]5(C)CCC(=O)C(C)(C)[C@@H]5CC[C@]43C)[C@H]2[C@H]1OC(=O)C(F)(F)F | 5.83 µM | 21.1
CN1CCN(c2cc(Nc3cc(C4CC4)[nH]n3)nc(Nc3ccc(CC(=O)NCc4cccc(F)c4)cc3)n2)CC1 | 2.6 µM | 16.7
CC(C)(C)c1ccc(C(=O)Nc2sc3c(c2C(N)=O)CC/C(=N\O)C3)cc1 | 3.06 µM | 9.38
COc1cc(C2c3cc4c(cc3OC(N3CCOCC3)C2C)OCO4)cc(OC)c1OC(C)=O (stereo not given) | 20 µM | > 100
CC(C)(C)n1cc(-c2ccnc(NCCNS(=O)(=O)c3cccc4ccccc34)c2)c(-c2cccc(F)c2)n1 | 11 µM | 33.6
